Each compound was assayed against T1, recombinant human baculovirus-expressed GST-tagged FASN (Homo sapiens, UniProt P49327) (assay: FASN enzyme activity assay: fluorescence-based detection of CoA with CPM). Conditions: 5 nM FASN, 150 μM NADPH, 10 μM acetyl-CoA, 25 μM malonyl-CoA, 90 minutes incubation.
T1 construct: GST; host or cells: baculovirus expression system (insect cells implied)
T1 sequence (P49327 whole entry): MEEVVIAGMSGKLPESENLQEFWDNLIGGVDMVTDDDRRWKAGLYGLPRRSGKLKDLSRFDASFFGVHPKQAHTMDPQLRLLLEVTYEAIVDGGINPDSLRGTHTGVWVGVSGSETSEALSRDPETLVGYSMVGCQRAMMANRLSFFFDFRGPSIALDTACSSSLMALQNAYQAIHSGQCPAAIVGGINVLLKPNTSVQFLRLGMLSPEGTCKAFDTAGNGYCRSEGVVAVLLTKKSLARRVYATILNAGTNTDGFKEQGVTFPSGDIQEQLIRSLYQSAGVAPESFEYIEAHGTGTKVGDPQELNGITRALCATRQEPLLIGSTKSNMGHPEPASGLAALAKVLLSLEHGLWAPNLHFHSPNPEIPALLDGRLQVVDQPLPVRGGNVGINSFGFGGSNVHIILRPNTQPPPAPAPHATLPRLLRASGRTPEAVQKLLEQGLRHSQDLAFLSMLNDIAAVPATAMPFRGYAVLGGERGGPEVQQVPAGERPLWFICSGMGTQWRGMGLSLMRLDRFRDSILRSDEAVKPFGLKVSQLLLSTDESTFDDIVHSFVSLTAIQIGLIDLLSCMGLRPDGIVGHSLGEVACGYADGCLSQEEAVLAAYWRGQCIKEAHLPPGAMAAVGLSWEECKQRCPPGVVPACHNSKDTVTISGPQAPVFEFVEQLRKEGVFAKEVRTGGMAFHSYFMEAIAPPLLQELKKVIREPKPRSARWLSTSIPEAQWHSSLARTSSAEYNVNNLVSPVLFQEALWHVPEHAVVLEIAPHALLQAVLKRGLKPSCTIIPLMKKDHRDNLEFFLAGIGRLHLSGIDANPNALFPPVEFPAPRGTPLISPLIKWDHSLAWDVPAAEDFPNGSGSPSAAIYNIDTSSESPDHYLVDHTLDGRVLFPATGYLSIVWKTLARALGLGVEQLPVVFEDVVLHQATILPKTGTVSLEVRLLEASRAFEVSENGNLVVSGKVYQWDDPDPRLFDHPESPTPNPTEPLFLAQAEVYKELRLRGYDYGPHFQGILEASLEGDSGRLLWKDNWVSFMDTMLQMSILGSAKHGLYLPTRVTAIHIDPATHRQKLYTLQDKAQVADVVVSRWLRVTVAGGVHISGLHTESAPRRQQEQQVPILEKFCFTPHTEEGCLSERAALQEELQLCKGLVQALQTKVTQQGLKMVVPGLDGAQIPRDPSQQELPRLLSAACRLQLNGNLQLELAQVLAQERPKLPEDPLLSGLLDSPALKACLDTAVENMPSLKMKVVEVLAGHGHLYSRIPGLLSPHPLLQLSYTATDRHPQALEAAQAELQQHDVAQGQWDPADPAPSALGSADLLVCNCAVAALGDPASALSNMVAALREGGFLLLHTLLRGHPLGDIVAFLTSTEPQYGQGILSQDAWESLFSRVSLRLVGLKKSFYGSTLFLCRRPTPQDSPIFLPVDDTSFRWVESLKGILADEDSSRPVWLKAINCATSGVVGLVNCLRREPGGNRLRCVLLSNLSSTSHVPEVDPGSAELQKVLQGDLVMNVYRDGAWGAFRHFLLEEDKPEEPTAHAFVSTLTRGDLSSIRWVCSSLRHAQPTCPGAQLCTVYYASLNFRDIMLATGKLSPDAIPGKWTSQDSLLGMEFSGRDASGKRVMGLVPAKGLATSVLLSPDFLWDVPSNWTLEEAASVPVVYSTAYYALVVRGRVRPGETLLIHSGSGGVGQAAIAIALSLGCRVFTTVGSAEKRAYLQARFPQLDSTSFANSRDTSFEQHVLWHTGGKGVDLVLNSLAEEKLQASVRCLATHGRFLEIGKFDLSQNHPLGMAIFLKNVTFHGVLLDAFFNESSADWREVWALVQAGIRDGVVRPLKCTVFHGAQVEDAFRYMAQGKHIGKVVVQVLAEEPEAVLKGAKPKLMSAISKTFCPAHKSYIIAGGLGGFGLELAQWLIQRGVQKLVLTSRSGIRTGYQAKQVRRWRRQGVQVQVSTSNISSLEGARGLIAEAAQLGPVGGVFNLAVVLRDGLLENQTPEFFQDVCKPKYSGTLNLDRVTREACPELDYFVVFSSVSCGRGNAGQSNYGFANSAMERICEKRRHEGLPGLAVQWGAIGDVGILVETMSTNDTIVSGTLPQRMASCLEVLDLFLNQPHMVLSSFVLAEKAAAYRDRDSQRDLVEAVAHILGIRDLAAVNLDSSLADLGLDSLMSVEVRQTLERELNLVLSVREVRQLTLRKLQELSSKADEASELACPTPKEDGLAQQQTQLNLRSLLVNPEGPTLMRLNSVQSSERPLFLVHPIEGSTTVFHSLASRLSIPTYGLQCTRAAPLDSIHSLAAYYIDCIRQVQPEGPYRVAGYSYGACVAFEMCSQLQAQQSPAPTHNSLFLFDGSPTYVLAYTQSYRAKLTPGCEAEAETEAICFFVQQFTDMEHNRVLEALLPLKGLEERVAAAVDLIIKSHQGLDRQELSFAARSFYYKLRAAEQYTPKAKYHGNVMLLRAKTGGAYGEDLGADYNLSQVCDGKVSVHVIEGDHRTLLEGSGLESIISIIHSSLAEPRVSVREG
Assay type: biochemical
Source text: FASN Enzyme activity may be determined by detecting coenzyme A (CoA), a product of FASN-catalyzed synthesis of palmitate from acetyl-CoA and malonyl-CoA with NADPH as a cofactor. The assay is fluorescence-based and measures the interaction of free CoA with 7-diethylamino-3-(4′-malemimidylphenyl)-4-methylcoumarin (CPM; Life Technologies, CA) as described in Chung et al (2008). The coumarin derivative CPM contains a thiol-reactive maleimide that becomes fluorescent upon interaction with the sulfhydryl group of CoA.
For the example compounds described herein, the reaction was performed in 384-well low volume non-binding platews (Corning, NY) using recombinant human baculovirus-expressed GST-tagged FASN. The 20-μL assay mixture contained 50 mM HEPES (pH 7.5), 5 nM FASN, 150 μM NADPH (Sigma, St. Louis, MO), 10 μM acetyl-CoA (Sigma), 25 μM malonyl-CoA (Sigma) and test compound [diluted in dimethyl sulfoxide (DMSO); 0.5% DMSO final in assay after 100 nL addition]. See, Chung et al.; “A fluorescence-based thiol quantification assay for ultra-high-throughput screening for inhibitors of coenzyme A production,” Assay Drug Dev Tech 2008; 6:361-374.
The reaction was initiated by adding malonyl-CoA, followed by incubation for 90 minutes at […]. A stock solution of the CPM reagent was prepared in DMSO al 66 μM and stored at […]. To detect CoA produced in the FASN reaction, the CPM stock was diluted to 50 μM in 70% ethanol and added at 4 μL/well to the assay place. The reaction mixture was then incubated for 30 minutes. Fluorescence was measured using the EnVision™ 2102 multi-label plate reader (PerkinElmer, Waltham, MA) utilizing a general dual mirror, a 390 nm excitation filter and a 530 nm emission filter. Data analysis was performed using ActivityBase (IDBS, Guilford, UK). IC50 values were calculated by plotting the percent inhibition versus log 10 of the concentration of the compound, and fitting to the nonlinear regression sigmoidal dose-response (variable slope) equation in XLFit (IDBS).
An IC50 of 1 to 99 nM was found for `CCC(=O)N1CCC(C(O)c2ccc(-c3ccc4cnccc4c3)cc2)CC1` (stereo not shown) [Example 130, 1-{4-[Hydroxy-(4-isoquinolin-6-yl-phenyl)-methyl]-piperidin-1-yl}-propan-1-one] in this work.
An IC50 of 1000 to 10000 nM was found for `CCC(=O)N1CCC(C2(c3ccc(-c4ccc5ncccc5c4)cc3)OCCO2)CC1` [Example 104, 1-{4-[2-(4-Quinolin-6-yl-phenyl)-1,3-dioxolan-2-yl]-piperidin-1-yl}-propan-1-one] in this work.
An IC50 of 1 to 99 nM was found for `COC(C)(c1ccc(-c2cnc3ccccc3c2)cc1)C1CCN(C(=O)C2CC2)CC1` (stereo not shown) [Example 209, Cyclopropyl-{4-[1-methoxy-1-(4-quinolin-3-yl-phenyl)-ethyl]-piperidin-1-yl}-methanone] in this work.
An IC50 of 1 to 99 nM was found for `COCCOC(c1ccc(-c2cnc3ccccc3c2C)cc1)C1CCN(C(=O)[C@H]2CCCO2)CC1` (stereo partly drawn) [Example 83, (4-{(2-Methoxyethoxy)-[4-(4-methyl-quinolin-3-yl)-phenyl]-methyl}-piperidin-1-yl)-(R)-tetrahydrofuran-2-yl-methanone] in this work.
An IC50 of 1 to 99 nM was found for `CCC(=O)N1CCC(F)(Cc2ccc(-c3ccc4cccnc4c3)cc2)CC1` [Example 163, 1-(4-fluoro-4-(4-(quinolin-7-yl)benzyl)piperidin-1-yl)propan-1-one] in this work.
An IC50 of 1000 to 10000 nM was found for `O=C(N1CCC(C2(c3ccc(-c4ccc5ncccc5c4)cc3)OCCO2)CC1)C(F)(F)F` [Example 98, 2,2,2-Trifluoro-1-{4-[2-(4-quinolin-6-yl-phenyl)-1,3-dioxolan-2-yl]-piperidin-1-yl}-ethanone] in this work.
An IC50 of 100 to 999 nM was found for `CCC(=O)N1CCC(C(C)(O)c2ccc(-c3ccc4cccnc4c3)cc2)CC1` (stereo not shown) [Example 126, 1-{4-[1-Hydroxy-1-(4-quinolin-7-yl-phenyl)-ethyl]-piperidin-1-yl}-propan-1-one] in this work.
An IC50 of 1 to 99 nM was found for `CCC(=O)N1CCC(Cc2ccc(-c3cnc4ccccc4c3C)cc2)CC1` [Example 12, 1-{4-[4-(4-Methylquinolin-3-yl)-benzyl]-piperidin-1-yl}-propan-1-one] in this work.
An IC50 of 1000 to 10000 nM was found for `CN(C)Cc1ccc(-c2ccc(C3(C4CCN(C(=O)C5CC5)CC4)OCCO3)cc2)cc1` [Example 137, Cyclopropyl-{4-[2-(4′-dimethylaminomethyl-biphenyl-4-yl)-1,3-dioxolan-2-yl]-piperidin-1-yl}-methanone] in this work.
An IC50 of 1 to 99 nM was found for `CCC(=O)N1CCC(Cc2ccc(-c3ccc4c(C)nccc4c3)cc2)CC1` [Example 35, 1-{4-[4-(1-methylisoquinolin-6-yl)-benzyl]-piperidin-1-yl}-propan-1-one] in this work.
An IC50 of 1000 to 10000 nM was found for `CCCC(=O)N1CCC(C2(c3ccc(-c4ccc5cccnc5c4)cc3)OCCO2)CC1` [Example 113, 1-{4-[2-(4-Quinolin-7-yl-phenyl)-1,3-dioxolan-2-yl]-piperidin-1-yl}-butan-1-one] in this work.
An IC50 of 1 to 99 nM was found for `O=C([C@H]1CCCO1)N1CCC(Cc2ccc(-c3cnc4ccccc4c3Cl)cc2)CC1` [Example 22, {4-[4-(4-Chloroquinolin-3-yl)-benzyl]-piperidin-1-yl}-(R)-tetrahydrofuran-2-yl-methanone] in this work.
An IC50 of 1000 to 10000 nM was found for `O=C(C1CC1)N1CCC(C2(c3ccc(-c4ccc5cccnc5c4)cc3)OCCO2)CC1` [Example 112, Cyclopropyl-{4-[2-(4-quinolin-7-yl-phenyl)-1,3-dioxolan-2-yl]-piperidin-1-yl}-methanone] in this work.
An IC50 of 1 to 99 nM was found for `O=C([C@H]1CCCO1)N1CC=C(Cc2ccc(-c3cnc4ccccc4c3Cl)cc2)CC1` [Example 202, (R)-(4-(4-(4-chloroquinolin-3-yl)benzyl)-3,6-dihydropyridin-1(2H)-yl)(tetrahydrofuran-2-yl)methanone] in this work.
An IC50 of 1000 to 10000 nM was found for `CCC(=O)N1CCC(C2(c3ccc(-c4ccc5cccnc5c4)cc3)OCCCO2)CC1` [Example 123, 1-{4-[2-(4-Quinolin-7-yl-phenyl)-1,3-dioxinan-2-yl]-piperidin-1-yl}-propan-1-one] in this work.
An IC50 of 100 to 999 nM was found for `O=C([C@H]1CCCO1)N1CCC(C(OCCN2CCCC2)c2ccc(-c3cnc4ccccc4c3)cc2)CC1` (stereo partly drawn) [Example 88, {4-[(2-Pyrrolidin-1-yl-ethoxy)-(4-quinolin-3-yl-phenyl)-methyl]-piperidin-1-yl}-(R)-tetrahydrofuran-2-yl-methanone] in this work.
An IC50 of 1000 to 10000 nM was found for `CC(C)C(=O)N1CCC(C2(c3ccc(-c4ccc5cccnc5c4)cc3)OCCCO2)CC1` [Example 121, 2-Methyl-1-{4-[2-(4-quinolin-7-yl-phenyl)-1,3-dioxinan-2-yl]-piperidin-1-yl}-propan-1-one] in this work.
An IC50 of 1 to 99 nM was found for `Cc1c(-c2ccc(CC3CCN(C(=O)[C@H]4CCCO4)CC3)cc2)ccc2nccn12` [Example 93, {4-[4-(5-Methyl-imidazo[1,2-a]pyridin-6-yl)-benzyl]-piperidin-1-yl}-(R)-tetrahydrofuran-2-yl-methanone] in this work.
An IC50 of 1 to 99 nM was found for `CC(c1ccc(-c2cnc3ccccc3c2Cl)cc1)C1CCN(C(=O)[C@H]2CCCO2)CC1` (mixture of isomers) [Example 77, (4-{1-[4-(4-Chloroquinolin-3-yl)-phenyl]-ethyl}-piperidin-1-yl)-(R)-tetrahydrofuran-2-yl-methanone] in this work.
An IC50 of 1000 to 10000 nM was found for `O=C(C1CC1)N1CCC(C2(c3ccc(-c4ccc5ncccc5c4)cc3)OCCO2)CC1` [Example 99, Cyclopropyl-{4-[2-(4-quinolin-6-yl-phenyl)-1,3-dioxolan-2-yl]-piperidin-1-yl}-methanone] in this work.
An IC50 of 1 to 99 nM was found for `CC(c1ccc(-c2ccc3cccnc3c2Cl)cc1)C1CCN(C(=O)C2CC2)CC1` (stereo not shown) [Example 73, (4-{1-[4-(8-Chloroquinolin-7-yl)-phenyl]-ethyl}-piperidin-1-yl)-cyclopropylmethanone] in this work.
An IC50 of 1 to 99 nM was found for `CCONC(=O)N1CCC(Cc2ccc(-c3ccc4cccnc4c3C)cc2)CC1` [Example 232, N-ethoxy-4-[[4-(8-methyl-7-quinolyl)phenyl]methyl]piperidine-1-carboxamide] in this work.
An IC50 of 1 to 99 nM was found for `Cc1c(-c2ccc(C(C)C3CCN(C(=O)[C@H]4CCCO4)CC3)cc2)ccc2cccnc12` (mixture of isomers) [Example 70, (4-{1-[4-(8-Methylquinolin-7-yl)-phenyl]-ethyl}-piperidin-1-yl)-(R)-tetrahydrofuran-2-yl-methanone] in this work.
An IC50 of 1000 to 10000 nM was found for `CC(=O)N1CCC(C2(c3ccc(-c4ccc5ccncc5c4)cc3)OCCO2)CC1` [Example 115, 1-{4-[2-(4-Isoquinolin-7-yl-phenyl)-1,3-dioxolan-2-yl]-piperidin-1-yl}-ethanone] in this work.
An IC50 of 1000 to 10000 nM was found for `CCC(=O)N1CCC(C(=O)c2ccc(-c3ccc4cnccc4c3)cc2)CC1` [Example 129, 1-[4-(4-Isoquinolin-6-yl-benzoyl)-piperidin-1-yl]-propan-1-one] in this work.
An IC50 of 100 to 999 nM was found for `CCC(=O)N1CCC(C(C)(OC)c2ccc(-c3cnc4ccccc4c3)cc2)CC1` (stereo not shown) [Example 208, 1-{4-[1-Methoxy-1-(4-quinolin-3-yl-phenyl)-ethyl]-piperidin-1-yl}-propan-1-one] in this work.
An IC50 of 1000 to 10000 nM was found for `CC(C)C(=O)N1CCC(C(O)c2ccc(-c3ccc4ncccc4c3)cc2)CC1` (stereo not shown) [Example 110, 1-{4-[Hydroxy-(4-quinolin-6-yl-phenyl)-methyl]-piperidin-1-yl}-2-methyl-propan-1-one] in this work.
An IC50 of 100 to 999 nM was found for `CCC(=O)N1CC[C@@H](Cc2ccc(-c3cnc4ccccc4c3)cc2)[C@H](OC)C1` (relative stereo) [Example 219, 1-[(trans)-3-Methoxy-4-(4-quinolin-3-yl-benzyl)-piperidin-1-yl]-propan-1-one] in this work.

— patent publication US11878966B2, “Substituted 4-benzyl and 4-benzoyl piperidine derivates” (89BIO LTD, priority 2015, dated 2024)
